Test results reported in patent US20210360915A1, “CRYOPRESERVING COMPOSITIONS” (UNIVERSITY OF WARWICK, priority 2018, published 2021).

Columns and labels:
[1] = tested on: β-galactosidase (β-Gal); assay: β-Gal activity recovery after frozen storage (ONPG assay); format: biochemical, bacterial; details: frozen at −20° C. for 3 days, thawed at 20° C.; PEG, PVP, Trehalose, HES 100 mg·mL^−1, PVA 1 mg·mL^−1
Procedure: Samples were made in triplicate at the appropriate concentrations and frozen in 1.5 mL tubes by directly placing in a freezer either at −20° C. or −80° C. The samples were then held at this temperature for the indicated time period and then thawed at 20° C.
Absorbance was measured at 420 nm. All other methods are in the supporting information.
Absorbance was measured at 420 nm.
Activity was tested after thawing at 20° C. (FIG. 6B).

[2] = target: β-Gal (Escherichia coli, UniProt P00722); details: 1 hour incubation without freeze/thaw
Procedure: β-Gal activity was determined by a colorimetric assay involving the use of ONPG. Briefly aliquots of 30 μL of 4 mg·mL-1 ONPG were added to wells of a 96 well plate containing 50 μL of 20 μg·mL^−1 B-Gal solution. This was then incubated at room temperature for 5 minutes and quenched by addition of 50 μL of 1M Na2CO3 solution. Absorbance was measured at 420 nm.
Since under standard laboratory conditions, proteins are normally stored at −80° C. through long periods, we decided to test the levels of protein activity after long term ultra-low temperature conditions.

[3] = tested on: E. coli; assay: E. coli colony recovery after 7 freeze/thaw cycles; format: cell-based, Escherichia coli; set-up: Mean colonies recovered, E. coli, Total: dose or concentration left out as unconfirmed
Procedure: E. coli was added to different cryoprotective formulations and then exposed to 7 freeze/thaw cycles from liquid nitrogen (−196° C.) to room temperature (20° C.) and the number of colony forming units determined by growth on agar plates for 16 hours was recorded (see FIG. 2A). This was chosen to mimic laboratory conditions where stocks are often frozen and thawed during use.
In some down-stream applications, […].
(§1) Bacillus subtilis was chosen as a Gram positive strain and Mycobacterium smegmatis as a Mycobacteria (distinct cell wall compared to other Gram positives) for further analysis. Using the same conditions as for E. coli, the cells were exposed to 7 freeze/thaw cycles and recovered colonies counted, Table 1 and FIG. 4. To enable comparison of the data and to account for the different growth rates of each bacterial strain, the recovered colonies were also normalised to the highest recovery.

[4] = tested on: M. smegmatis; assay: M. smegmatis colony recovery after 7 freeze/thaw cycles; format: cell-based, Mycobacterium smegmatis
From the text: as §1

[5] = tested on: B. subtilis; assay: B. subtilis colony recovery after 7 freeze/thaw cycles; format: cell-based, Bacillus subtilis
From the text: as §1

[6] = tested on: E. coli
Procedure: Each component (at the useful cryopreservation concentration) was incubated with E. coli overnight at 4° C. and subsequently the number of colony forming units determined, FIG. 2B.

[7] = tested on: E. coli; assay: Post-thaw growth profile of E. coli by OD600; format: cell-based, Escherichia coli; details: 7 freeze/thaw cycles in liquid nitrogen, then inoculated into LB media
From the text: This macromolecular cryoprotection solution using ice-inhibiting polymers is clearly suitable for bacteria storage but there are many parameters which can be varied in this system including the molecular weight of the polymers. To enable a large number of conditions to be screened, the post-thaw growth rate of E. coli was also followed by OD600 (turbidity) measurements, which enable higher-throughput measurements. E. coli were frozen with the indicated formulations, and post-thaw inoculated into LB media and their growth monitored.
The improvement was most significant in the case of larger PEGs.

[8] = concentrations as in table footnote, ± SD
[9] = normalised to the highest recovery

Chain of β-Gal (P00722 2-1024): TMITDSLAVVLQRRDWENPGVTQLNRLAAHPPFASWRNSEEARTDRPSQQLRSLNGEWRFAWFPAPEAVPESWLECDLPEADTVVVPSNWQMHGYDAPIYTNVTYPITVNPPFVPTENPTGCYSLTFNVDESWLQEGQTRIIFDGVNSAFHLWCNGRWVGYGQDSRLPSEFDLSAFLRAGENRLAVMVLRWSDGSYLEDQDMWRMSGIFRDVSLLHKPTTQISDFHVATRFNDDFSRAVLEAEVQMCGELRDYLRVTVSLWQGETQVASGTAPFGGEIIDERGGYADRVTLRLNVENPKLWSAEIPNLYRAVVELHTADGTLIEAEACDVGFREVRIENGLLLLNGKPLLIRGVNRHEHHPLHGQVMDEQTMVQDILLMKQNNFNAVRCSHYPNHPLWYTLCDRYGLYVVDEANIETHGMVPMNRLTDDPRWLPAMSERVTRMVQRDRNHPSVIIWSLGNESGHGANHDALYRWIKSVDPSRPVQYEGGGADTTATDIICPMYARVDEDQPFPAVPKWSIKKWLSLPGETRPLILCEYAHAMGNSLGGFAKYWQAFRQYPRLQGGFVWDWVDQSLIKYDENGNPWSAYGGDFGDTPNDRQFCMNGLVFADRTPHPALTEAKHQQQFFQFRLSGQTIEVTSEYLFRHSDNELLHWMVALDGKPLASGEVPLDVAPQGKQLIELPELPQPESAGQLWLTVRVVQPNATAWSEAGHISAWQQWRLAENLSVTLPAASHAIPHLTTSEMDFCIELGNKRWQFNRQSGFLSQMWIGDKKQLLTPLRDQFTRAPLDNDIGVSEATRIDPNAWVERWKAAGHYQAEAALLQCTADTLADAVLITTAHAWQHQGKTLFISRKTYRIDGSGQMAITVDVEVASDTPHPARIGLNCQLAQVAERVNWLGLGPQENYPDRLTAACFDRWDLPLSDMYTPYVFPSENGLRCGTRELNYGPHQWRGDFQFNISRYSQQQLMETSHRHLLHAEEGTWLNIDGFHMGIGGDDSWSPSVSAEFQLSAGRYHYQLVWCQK

SMILES | protection of β-Gal activity [1] | β-Gal function after incubation with cryoprotectant [2] | recovered colonies (colony forming units) ([3]; 7 freeze (−196° C.)/thaw (20° C.) cycles, growth on agar plates for 16 hours, PEG/PVA 100 + 1 mg·mL^−1) | Mean colonies recovered, E. coli, Normalised ([3]; 7 freeze/thaw cycles, normalised to the highest recovery) | Mean colonies recovered, E. coli, Total ([3]; 7 freeze/thaw cycles, ± SD) | Mean colonies recovered, M. smegmatis, Total [4, 8] | Mean colonies recovered, M. smegmatis, Normalised [4, 9] | Mean colonies recovered, B. subtilis, Total [5, 8] | Mean colonies recovered, B. subtilis, Normalised [5, 9] | recovered colonies after overnight incubation with cryoprotectant (toxicity) [6] | post-thaw growth rate (OD600) [7]
OC[C@H]1O[C@H](O[C@H]2O[C@H](CO)[C@@H](O)[C@H](O)[C@H]2O)[C@H](O)[C@@H](O)[C@@H]1O [trehalose] | protected β-Gal activity | some negative effects on protein function | – | – | – | – | – | – | – | – | –
OCC(O)CO [25% Glycerol, glycerol] | – | – | 15 | 22% | 15 ± 2.8 | 30 ± 6.0 | 88% | 93 ± 18.9 | 35% | significant reduction in recovered colonies | essentially identical growth rates
